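Protocol summary: plate cells (96-well), add compound at 5 concentrations, incubate 48 h, interpolate endpoints linearly. The concentration for 50% growth inhibition is given as GI50. TGI denotes the concentration required for complete inhibition of growth.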
Assays:
Test in all cases: inhibition of tumour cell growth, NCI panel, 48 h
[1] = tested on: 786-0 renal
[2] = tested on: A498 renal
[3] = tested on: A549 NSCLC
[4] = tested on: ACHN renal
[5] = tested on: BT-549 breast
[6] = tested on: CAKI-1 renal
[7] = tested on: CCRF-CEM leukemia
[8] = tested on: COLO 205 colon
[9] = tested on: DU-145 prostate
[10] = tested on: EKVX NSCLC
[11] = tested on: HCC-2998 colon
[12] = tested on: HCT-116 colon
[13] = tested on: HCT-15 colon
[14] = tested on: HL-60(TB) leukemia
[15] = tested on: HOP-62 NSCLC
[16] = tested on: HOP-92 NSCLC
[17] = tested on: HS 578T breast
[18] = tested on: HT29 colon
[19] = tested on: IGROV1 ovarian
[20] = tested on: K-562 leukemia
[21] = tested on: KM12 colon
[22] = tested on: LOX IMVI melanoma
[23] = tested on: M14 melanoma
[24] = tested on: MALME-3M melanoma
[25] = tested on: MCF7 breast
[26] = tested on: MDA-MB-231 breast
[27] = tested on: MDA-MB-435
[28] = tested on: MOLT-4 leukemia
[29] = tested on: NCI-H226 lung
[30] = tested on: NCI-H23 lung
[31] = tested on: NCI-H460 lung
[32] = tested on: NCI-H522 lung
[33] = tested on: NCI/ADR-RES ovarian
[34] = tested on: OVCAR-3 ovarian
[35] = tested on: OVCAR-4 ovarian
[36] = tested on: OVCAR-5 ovarian
[37] = tested on: OVCAR-8 ovarian
[38] = tested on: PC-3 prostate
[39] = tested on: RPMI-8226 leukemia
[40] = tested on: RXF 393 renal
[41] = tested on: SF-268 CNS
[42] = tested on: SF-295 CNS
[43] = tested on: SF-539 CNS
[44] = tested on: SK-MEL-2 melanoma
[45] = tested on: SK-MEL-28 melanoma
[46] = tested on: SK-MEL-5 melanoma
[47] = tested on: SK-OV-3 ovarian
[48] = tested on: SN12C renal
[49] = tested on: SNB-19 CNS
[50] = tested on: SNB-75 CNS
[51] = tested on: SR leukemia
[52] = tested on: SW-620 colon
[53] = tested on: T-47D breast
[54] = tested on: TK-10 renal
[55] = tested on: U251 CNS
[56] = tested on: UACC-257 melanoma
[57] = tested on: UACC-62 melanoma
[58] = tested on: UO-31 renal

## CCCCCCCCCCCCOC1C(C(COC2OC(C(O)CO)C3OC(C)(C)OC23)OC(=O)Nc2ccccc2)OC2OC(C)(C)OC21 (centres undefined)
[1]
  GI50: 5.84 µM
  TGI: 17.2 µM
[2]
  GI50: 12.4 µM
  TGI: 25.1 µM
[3]
  GI50: 6.08 µM
  TGI: 20.6 µM
[4]
  GI50: 4.82 µM
  TGI: 16.3 µM
[5]
  GI50: 10.5 µM
  TGI: 23.8 µM
[6]
  GI50: 12 µM
  TGI: 25.9 µM
[7]
  TGI: 6.66 µM
[8]
  GI50: 5.51 µM
  TGI: 16.6 µM
[9]
  GI50: 10 µM
  TGI: 22.8 µM
[10]
  GI50: 9.94 µM
  TGI: 22.2 µM
[11]
  GI50: 5.39 µM
  TGI: 10.4 µM
[12]
  GI50: 2.14 µM
  TGI: 5.79 µM
[13]
  GI50: 4.5 µM
  TGI: 16.1 µM
[14]
  GI50: 0.484 µM
  TGI: 1.6 µM
[15]
  GI50: 9.7 µM
  TGI: 22.2 µM
[16]
  GI50: 7.29 µM
  TGI: 20.1 µM
[17]
  GI50: 6.13 µM
  TGI: 18.6 µM
[18]
  GI50: 2.11 µM
  TGI: 4.68 µM
[19]
  GI50: 4.94 µM
  TGI: 15.3 µM
[20]
  GI50: 3.44 µM
  TGI: 16.9 µM
[21]
  GI50: 2.99 µM
  TGI: 8.76 µM
[22]
  GI50: 7.82 µM
  TGI: 20.9 µM
[23]
  GI50: 5.12 µM
  TGI: 17 µM
[24]
  GI50: 9.2 µM
  TGI: 23.2 µM
[25]
  GI50: 3.85 µM
  TGI: 13.6 µM
[26]
  GI50: 8.7 µM
  TGI: 21.1 µM
[27]
  GI50: 7.72 µM
  TGI: 21.6 µM
[28]
  GI50: 0.127 µM
  TGI: 5.14 µM
[29]
  GI50: 11.8 µM
  TGI: 26.4 µM
[30]
  GI50: 7.39 µM
  TGI: 19.6 µM
[31]
  GI50: 3.88 µM
  TGI: 13.3 µM
[32]
  GI50: 9.89 µM
  TGI: 29.2 µM
[33]
  GI50: 6.04 µM
  TGI: 18.4 µM
[34]
  GI50: 6.52 µM
  TGI: 19.6 µM
[35]
  GI50: 5.85 µM
  TGI: 17.8 µM
[36]
  GI50: 4.84 µM
  TGI: 16.3 µM
[37]
  GI50: 8.24 µM
  TGI: 26.2 µM
[38]
  GI50: 3.57 µM
  TGI: 13.1 µM
[39]
  GI50: 3.93 µM
  TGI: 15.2 µM
[40]
  GI50: 4.33 µM
  TGI: 12.6 µM
[41]
  GI50: 4.47 µM
  TGI: 16.6 µM
[42]
  GI50: 5.47 µM
  TGI: 17.7 µM
[43]
  GI50: 9.14 µM
  TGI: 22.3 µM
[44]
  GI50: 16.3 µM
  TGI: 32.4 µM
[45]
  GI50: 7.24 µM
  TGI: 19.3 µM
[46]
  GI50: 8.55 µM
  TGI: 25.6 µM
[47]
  GI50: 15.6 µM
  TGI: 30 µM
[48]
  GI50: 4.89 µM
  TGI: 16.6 µM
[49]
  GI50: 7.35 µM
  TGI: 20.3 µM
[50]
  GI50: 5.2 µM
  TGI: 16.9 µM
[51]
  GI50: < 0.0212 µM
[52]
  GI50: 9.21 µM
  TGI: 27.2 µM
[53]
  GI50: 5.02 µM
  TGI: 16.6 µM
[54]
  GI50: 4.72 µM
  TGI: 9.91 µM
[55]
  GI50: 5.44 µM
  TGI: 18 µM
[56]
  GI50: 9.94 µM
  TGI: 25.2 µM
[57]
  GI50: 10.5 µM
  TGI: 22.5 µM
[58]
  GI50: 9.01 µM
  TGI: 23.7 µM

Source: PubChem BioAssay (NCI)
